Test results from patent US20250382344A1, “Soluble GLP1/GIP/NPY2 Receptor Triple Agonists” (Boehringer Ingelheim International GmH, priority 2024, published 2025).
Where two headings read alike, the source gives them in different places.

Columns and labels:
[1] = molecular target: T1, hGLP1R (Homo sapiens, UniProt P43220); experiment: hGLP1R CreLuc assay in 0.5% and 100% plasma (HEK-293 CRE-luciferase reporter cells); assay type: cell-based; conditions: HEK-293 reporter cells
T1 construct: expressed in transfected cells; host or cells: HEK-293 CRE-luciferase reporter cells
T1 sequence (P43220 24-463): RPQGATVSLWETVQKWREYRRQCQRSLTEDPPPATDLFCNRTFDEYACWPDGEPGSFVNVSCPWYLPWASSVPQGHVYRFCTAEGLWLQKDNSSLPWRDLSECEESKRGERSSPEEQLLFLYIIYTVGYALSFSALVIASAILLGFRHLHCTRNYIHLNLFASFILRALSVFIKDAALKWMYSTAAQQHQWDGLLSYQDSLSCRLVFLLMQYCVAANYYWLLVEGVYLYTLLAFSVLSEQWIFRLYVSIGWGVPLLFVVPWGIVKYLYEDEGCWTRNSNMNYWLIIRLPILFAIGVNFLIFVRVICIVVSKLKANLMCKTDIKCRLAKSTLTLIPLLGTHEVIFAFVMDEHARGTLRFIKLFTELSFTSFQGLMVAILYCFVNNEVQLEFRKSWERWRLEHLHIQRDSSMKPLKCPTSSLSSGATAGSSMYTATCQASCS

[2] = molecular target: T2, hGIPR (Homo sapiens, UniProt P48546); experiment: hGIPR CreLuc assay in 0.5% and 100% plasma (CHO CRE-luciferase reporter cells); assay type: cell-based
T2 construct: expressed in transfected cells; host or cells: CHO CRE-luciferase reporter cells
T2 sequence (P48546 22-466): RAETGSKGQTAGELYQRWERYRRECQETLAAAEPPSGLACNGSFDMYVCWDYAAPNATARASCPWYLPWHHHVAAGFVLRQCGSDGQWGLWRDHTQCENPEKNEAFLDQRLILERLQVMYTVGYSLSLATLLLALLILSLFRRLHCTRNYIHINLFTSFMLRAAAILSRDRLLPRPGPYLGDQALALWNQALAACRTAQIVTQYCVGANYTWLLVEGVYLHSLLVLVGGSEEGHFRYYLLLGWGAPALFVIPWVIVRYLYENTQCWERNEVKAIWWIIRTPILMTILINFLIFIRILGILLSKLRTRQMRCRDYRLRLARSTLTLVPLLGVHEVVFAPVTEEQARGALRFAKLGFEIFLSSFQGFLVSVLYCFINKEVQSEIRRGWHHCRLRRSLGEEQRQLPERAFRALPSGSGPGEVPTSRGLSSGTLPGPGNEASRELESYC

[3] = Solubility in 0.1 M phosphate buffer at pH 7; assay type: physicochemical; conditions: 0.1 M phosphate buffer at pH 7, 10 mg/mL final peptide concentration, shaking 2 hours at room temperature, peptides as TFA-salts; measured sample pH 6.5-7.0
[4] = 0.5% human plasma, read-out: hGLP1R 0.5% hP
[5] = 100% human plasma, read-out: hGLP1R 100% hP
[6] = 0.5% human plasma, read-out: hGIPR 0.5% hP

EC50 [1, 4] [nM] | EC50 [1, 5] [nM] | EC50 [2, 6] [nM] | solubility at 2 h [3] [µg/mL] | EC50 ([2]; 100% human plasma, read-out: hGIPR 100% hP) [nM] | Structure (SMILES)
0.1 | 1 | 0.7 | 8900 | – | CC[C@H](C)[C@H](NC(=O)[C@H](CCCCN)NC(=O)[C@H](CC(=O)O)NC(=O)[C@H](CC(C)C)NC(=O)C(C)(C)NC(=O)[C@@H](NC(=O)[C@H](CO)NC(=O)[C@H](Cc1ccc(O)cc1)NC(=O)[C@H](CC(=O)O)NC(=O)[C@H](CO)NC(=O)[C@@H](NC(=O)[C@H](Cc1ccccc1)NC(=O)[C@@H](NC(=O)CNC(=O)[C@H](CCC(=O)O)NC(=O)C(C)(C)NC(=O)[C@@H](N)Cc1ccc(O)cc1)[C@@H](C)O)[C@@H](C)O)[C@@H](C)CC)C(=O)N[C@@H](C)C(=O)N[C@@H](CCC(N)=O)C(=O)NC(C)(C)C(=O)N[C@@H](C)C(=O)N[C@@H](Cc1ccccc1)C(=O)N[C@H](C(=O)N[C@@H](CCCNC(=N)N)C(=O)N[C@@H](Cc1c[nH]cn1)C(=O)N[C@@H](CC(C)C)C(=O)N[C@H](C(=O)N[C@@H](CC(N)=O)C(=O)N[C@@H](CCCCNC(=O)[C@@H](N)CCCCNC(=O)CC[C@H](NC(=O)CC[C@H](NC(=O)CC[C@H](NC(=O)CC[C@H](NC(=O)CC[C@H](NC(=O)CC[C@H](NC(=O)CCCCCCCCCCCCCCCCC(=O)O)C(=O)O)C(=O)O)C(=O)O)C(=O)O)C(=O)O)C(=O)O)C(=O)NC(C)(C)C(=O)N[C@H](C(=O)N[C@@H](CCCNC(=N)N)C(=O)N[C@@H](CCC(N)=O)C(=O)N[C@@H](CCCNC(=N)N)C(=O)N[C@@H](Cc1ccc(O)cc1)C(N)=O)[C@@H](C)O)[C@@H](C)CC)C(C)C [Compound 33, Y-Aib-E-G-T-F-T-S-D-Y-S-I-Aib-L-D-K-I-A-Q-Aib-A-F-V-R-H-L-I-N-K(1,3)-Aib-T-R-Q-R-Y-NH2.C18DA-gGlu-gGlu-gGlu-gGlu-gGlu-gGlu-eLys(1,2)]
0.3 | – | 0.2 | 10600 | – | CC[C@H](C)[C@H](NC(=O)[C@H](CC(C)C)NC(=O)[C@H](Cc1c[nH]cn1)NC(=O)[C@H](CCCNC(=N)N)NC(=O)[C@@H](NC(=O)[C@H](Cc1ccccc1)NC(=O)[C@H](C)NC(=O)C(C)(C)NC(=O)[C@H](CCC(N)=O)NC(=O)[C@H](C)NC(=O)[C@H](CCC(N)=O)NC(=O)[C@H](CCCCN)NC(=O)[C@H](CCC(=O)O)NC(=O)[C@H](CC(C)C)NC(=O)C(C)(C)NC(=O)[C@@H](NC(=O)[C@H](CO)NC(=O)[C@H](Cc1ccc(O)cc1)NC(=O)[C@H](CC(=O)O)NC(=O)[C@H](CO)NC(=O)[C@@H](NC(=O)[C@H](Cc1ccccc1)NC(=O)[C@@H](NC(=O)CNC(=O)[C@H](CCC(=O)O)NC(=O)C(C)(C)NC(=O)[C@@H](N)Cc1ccc(O)cc1)[C@@H](C)O)[C@@H](C)O)[C@@H](C)CC)C(C)C)C(=O)N[C@@H](CC(N)=O)C(=O)N[C@@H](CCCCNC(=O)CC[C@H](NC(=O)CC[C@H](NC(=O)[C@@H](N)CCCCNC(=O)CC[C@H](NC(=O)CC[C@H](NC(=O)CC[C@H](NC(=O)CC[C@H](NC(=O)CCCCCCCCCCCCCCCCC(=O)O)C(=O)O)C(=O)O)C(=O)O)C(=O)O)C(=O)O)C(=O)O)C(=O)NC(C)(C)C(=O)N[C@H](C(=O)N[C@@H](CCCNC(=N)N)C(=O)N[C@@H](CCC(N)=O)C(=O)N[C@@H](CCCNC(=N)N)C(=O)N[C@@H](Cc1ccc(O)cc1)C(N)=O)[C@@H](C)O [Compound 34, Y-Aib-E-G-T-F-T-S-D-Y-S-I-Aib-L-E-K-Q-A-Q-Aib-A-F-V-R-H-L-I-N-K(1,3)-Aib-T-R-Q-R-Y-NH2.C18DA-gGlu-gGlu-gGlu-gGlu-eLys-gGlu-gGlu(1,2)]
0.9 | 5 | 0.3 | 4000 | 7.1 | CC[C@H](C)[C@H](NC(=O)[C@H](CC(C)C)NC(=O)[C@H](Cc1c[nH]cn1)NC(=O)[C@H](CCCNC(=N)N)NC(=O)[C@@H](NC(=O)[C@H](Cc1ccccc1)NC(=O)[C@H](C)NC(=O)C(C)(C)NC(=O)[C@H](CCC(N)=O)NC(=O)[C@H](C)NC(=O)[C@H](CCC(N)=O)NC(=O)[C@H](CCCCN)NC(=O)[C@H](CCC(=O)O)NC(=O)[C@H](CC(C)C)NC(=O)C(C)(C)NC(=O)[C@@H](NC(=O)[C@H](CO)NC(=O)[C@H](Cc1ccc(O)cc1)NC(=O)[C@H](CC(=O)O)NC(=O)[C@H](CO)NC(=O)[C@@H](NC(=O)[C@H](Cc1ccccc1)NC(=O)[C@@H](NC(=O)CNC(=O)[C@H](CCC(=O)O)NC(=O)C(C)(C)NC(=O)[C@@H](N)Cc1ccc(O)cc1)[C@@H](C)O)[C@@H](C)O)[C@@H](C)CC)C(C)C)C(=O)N[C@@H](CC(N)=O)C(=O)N[C@@H](CCCCNC(=O)CC[C@H](NC(=O)CC[C@H](NC(=O)CC[C@H](NC(=O)CC[C@H](NC(=O)CC[C@H](NC(=O)CCCCCCCCCCCCCCCCC(=O)O)C(=O)O)C(=O)O)C(=O)O)C(=O)O)C(=O)O)C(=O)N[C@H](C(=O)N[C@H](C(=O)N[C@@H](CCCNC(=N)N)C(=O)N[C@@H](CCC(N)=O)C(=O)N[C@@H](CCCNC(=N)N)C(=O)N[C@@H](Cc1ccc(O)cc1)C(N)=O)[C@@H](C)O)[C@@H](C)CC [Compound 41, Y-Aib-E-G-T-F-T-S-D-Y-S-I-Aib-L-E-K-Q-A-Q-Aib-A-F-V-R-H-L-I-N-K(1,3)-I-T-R-Q-R-Y-NH2.C18DA-gGlu-gGlu-gGlu-gGlu-gGlu(1,2)]
0.9 | 14.5 | 0.2 | 4300 | – | CC[C@H](C)[C@H](NC(=O)[C@H](CC(C)C)NC(=O)[C@H](Cc1c[nH]cn1)NC(=O)[C@H](CCCNC(=N)N)NC(=O)[C@@H](NC(=O)[C@H](Cc1ccccc1)NC(=O)[C@H](C)NC(=O)C(C)(C)NC(=O)[C@H](CCC(N)=O)NC(=O)[C@H](C)NC(=O)[C@H](CCC(N)=O)NC(=O)[C@H](CCC(N)=O)NC(=O)[C@H](CCC(=O)O)NC(=O)[C@H](CC(C)C)NC(=O)C(C)(C)NC(=O)[C@@H](NC(=O)[C@H](CO)NC(=O)[C@H](Cc1ccc(O)cc1)NC(=O)[C@H](CC(=O)O)NC(=O)[C@H](CO)NC(=O)[C@@H](NC(=O)[C@H](Cc1ccccc1)NC(=O)[C@@H](NC(=O)CNC(=O)[C@H](CCC(=O)O)NC(=O)C(C)(C)NC(=O)[C@@H](N)Cc1ccc(O)cc1)[C@@H](C)O)[C@@H](C)O)[C@@H](C)CC)C(C)C)C(=O)N[C@@H](CC(N)=O)C(=O)N[C@@H](CCCCNC(=O)CC[C@H](NC(=O)CC[C@H](NC(=O)CC[C@H](NC(=O)CC[C@H](NC(=O)CC[C@H](NC(=O)CCCCCCCCCCCCCCCCC(=O)O)C(=O)O)C(=O)O)C(=O)O)C(=O)O)C(=O)O)C(=O)NC(C)(C)C(=O)N[C@H](C(=O)N[C@@H](CCCNC(=N)N)C(=O)N[C@@H](CCC(N)=O)C(=O)N[C@@H](CCCNC(=N)N)C(=O)N[C@@H](Cc1ccc(O)cc1)C(N)=O)[C@@H](C)O [Compound 42, Y-Aib-E-G-T-F-T-S-D-Y-S-I-Aib-L-E-Q-Q-A-Q-Aib-A-F-V-R-H-L-I-N-K(1,3)-Aib-T-R-Q-R-Y-NH2.C18DA-gGlu-gGlu-gGlu-gGlu-gGlu(1,2)]
